Results: patent US8124121B2, “Flavors, flavor modifiers, tastants, taste enhancers, umami or sweet tastants, and/or enhancers and use thereof” (Senomyx, Inc., priority 2003, dated 2012)

Tests used:
[1] = tested on: savory taste, human panelists; test: Umami/savory flavor experiments using human panelists (trained panel, difference from reference); type: in vivo; conditions: 12 mM MSG + cpd vs reference 12 mM MSG + 100 μM IMP
Experimental: General Panelist Selection: Basic screening of sensory taste testers: Potential panelists were tested for their abilities to rank and rate intensities of solutions representing the five basic tastes. Panelists ranked and rated intensity of five different concentrations of each of the five following compounds: sucrose (sweet), sodium chloride (salty), citric acid (sour), caffeine (bitter), and monosodium glutamate (savory). In order to be selected for participation in testing, panelists needed to correctly rank and rate samples for intensity, with a reasonable number of errors
Preliminary Taste Tests: The panelists selected in the above procedure were deemed qualified for performing Preliminary Taste Testing procedures. The preliminary taste tests are used to evaluate new compounds for intensity of basic tastes and off-tastes. A small group of panelists (n=5) taste approximately 5 concentrations of the compound (range typically between 1-100 μM, in half-log cycles, e.g., 1, 3, 10, 30, and 100 μM) in water and in a solution of 12 mM MSG to evaluate enhancement. Panelists rate the five basic tastes (sweet, salty, sour, bitter, and savory) as well as off-tastes (such as chemical, metallic, sulfur) on a labeled magnitude scale. Samples are served in 10 mL portions at room temperature. The purpose of the test is to determine the highest concentration at which there is no objectionable off-taste, and determine if obvious savory taste or enhancement of savory taste exists at any of the concentrations tested.
Trained Panelist Selection: A trained expert panel was used to further evaluate compounds that had been tested with the preliminary taste test.
Panelists for the trained panel were selected from the larger group of qualifying taste panelists. Panelists were further trained on savory taste by ranking and rating experiments using MSG and IMP combinations. Panelists completed a series of ranking, rating, and difference from reference tests with savory solutions. In ranking and rating experiments, panelists evaluated easy MSG concentrations (0, 6, 18, 36 mM) and more difficult MSG concentrations (3, 6, 12, 18 mM MSG) in water.
Compound testing with Trained Panel: Compounds tested by the trained panel were evaluated in difference from reference experiments. […] Test samples were solutions with varying amounts of MSG, IMP, and the compound.
Compounds were tested against the reference in samples with and without 12 mM MSG. All samples were presented in 10 ml volumes at room temperature. Two sessions were completed for each compound tested to evaluate panel reproducibility.

[2] = target: T1, hT1R1/hT1R3 umami receptor (Homo sapiens, UniProt Q7RTX0+Q7RTX1); test: Umami taste enhancement activity assay (EC50 ratio vs. MSG); type: cell-based
T1 construct: expressed in transfected cells; host or cells: HEK293 derivative stably expressing Gα15, clone I-17, expression induced with mifepristone
T1 sequence (Q7RTX1 21-841): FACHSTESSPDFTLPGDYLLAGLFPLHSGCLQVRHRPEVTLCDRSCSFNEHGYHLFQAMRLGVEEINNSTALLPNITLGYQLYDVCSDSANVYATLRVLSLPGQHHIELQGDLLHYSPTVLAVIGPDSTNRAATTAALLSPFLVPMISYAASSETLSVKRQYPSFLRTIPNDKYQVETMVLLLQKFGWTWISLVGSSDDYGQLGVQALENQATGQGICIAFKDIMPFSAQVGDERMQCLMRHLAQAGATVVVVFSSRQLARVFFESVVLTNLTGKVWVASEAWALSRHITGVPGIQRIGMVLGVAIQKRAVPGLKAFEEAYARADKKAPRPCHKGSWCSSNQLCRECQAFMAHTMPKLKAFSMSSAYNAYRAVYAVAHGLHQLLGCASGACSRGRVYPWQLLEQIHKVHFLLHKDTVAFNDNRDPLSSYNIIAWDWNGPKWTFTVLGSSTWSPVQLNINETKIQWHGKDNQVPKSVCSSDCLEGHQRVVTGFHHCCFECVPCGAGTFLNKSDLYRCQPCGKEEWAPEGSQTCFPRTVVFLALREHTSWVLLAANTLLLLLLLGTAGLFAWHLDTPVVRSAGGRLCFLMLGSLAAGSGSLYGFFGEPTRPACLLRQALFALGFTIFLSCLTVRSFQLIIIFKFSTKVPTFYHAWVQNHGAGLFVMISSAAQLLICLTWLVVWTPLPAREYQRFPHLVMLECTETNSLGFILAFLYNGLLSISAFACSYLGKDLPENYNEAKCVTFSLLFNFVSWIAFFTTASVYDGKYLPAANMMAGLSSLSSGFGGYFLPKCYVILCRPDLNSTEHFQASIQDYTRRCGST
T1 sequence (Q7RTX0 21-852): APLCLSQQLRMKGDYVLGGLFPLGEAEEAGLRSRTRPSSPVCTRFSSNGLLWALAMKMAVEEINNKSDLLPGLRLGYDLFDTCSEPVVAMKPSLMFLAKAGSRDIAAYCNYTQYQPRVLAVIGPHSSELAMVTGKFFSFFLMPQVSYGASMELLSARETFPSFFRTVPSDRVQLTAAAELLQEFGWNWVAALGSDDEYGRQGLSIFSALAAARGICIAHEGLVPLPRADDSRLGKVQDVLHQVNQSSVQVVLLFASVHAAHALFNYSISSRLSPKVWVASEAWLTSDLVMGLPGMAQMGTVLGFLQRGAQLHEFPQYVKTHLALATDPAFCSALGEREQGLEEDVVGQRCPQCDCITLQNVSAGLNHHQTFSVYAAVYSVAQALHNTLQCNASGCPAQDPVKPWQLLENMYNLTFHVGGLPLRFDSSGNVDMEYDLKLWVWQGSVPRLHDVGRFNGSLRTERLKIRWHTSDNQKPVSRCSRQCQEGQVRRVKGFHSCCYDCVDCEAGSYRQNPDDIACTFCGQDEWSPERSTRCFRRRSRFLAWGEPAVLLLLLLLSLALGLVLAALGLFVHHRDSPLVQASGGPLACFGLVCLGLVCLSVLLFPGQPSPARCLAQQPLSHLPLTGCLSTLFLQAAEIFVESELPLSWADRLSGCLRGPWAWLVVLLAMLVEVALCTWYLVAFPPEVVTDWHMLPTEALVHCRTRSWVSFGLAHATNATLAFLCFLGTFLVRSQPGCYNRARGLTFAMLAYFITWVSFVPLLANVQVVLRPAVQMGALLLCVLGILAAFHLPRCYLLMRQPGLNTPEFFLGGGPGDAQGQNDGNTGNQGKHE
Experimental: A series of measurements of the dose response is run in solutions comprising MSG alone, then a second dose response is run with MSG in combination with predetermined amounts of a candidate compound of Formula (I) at the same time.
Typical compound concentrations tested were 30 μM, 10 μM, 3 μM, 1 μM, 0.3 μM, 0.1 μM and 0.03 μM. The relative efficacy of compounds of Formula (I) at enhancing the receptor was determined by calculating the magnitude of a shift in the EC50 for monosodium glutamate. Enhancement was defined as a ratio (EC50R) corresponding to the EC50 of monosodium glutamate, determined in the absence of the test compound, divided by the EC50 of monosodium glutamate, determined in the presence of the test compound.
Stated alternatively, “EC50 ratio” as compared to MSG is calculated based on the following definitions: EC50 Ratio vs. MSG=EC50 (MSG)/EC50(MSG+[Compound]) • wherein “[compound]” refers to the concentration of the compound of Formula (I) used to elicit (or enhance or potentiate) the MSG dose response.

[3] = tested on: sweet taste, human panelists; test: Sweet flavor and sweet flavor enhancement measurement using human panelists; type: in vivo
Experimental: Overview: Various concentrations of the experimental compound (normally aqueous solutions containing 1, 3, 10, and 30 uM concentrations of the experimental compound; and optionally 50 uM and/or 100 uM concentrations) are individually tasted by trained human subjects and rated for intensity of several taste attributes. The experimental compound may also be tasted when dissolved in a “key tastant” solution.
Procedure: An appropriate quantity of the experimental compound is dissolved in water typically also containing 0.1% ethanol, which is utilized to aid initial dispersion of the compound in the aqeuous stock solution. When appropriate, the experimental compound may also be dissolved in aqueous solutions of a “key tastant” (for example, 4% sucrose, 6% sucrose, 6% fructose/glucose, or 7% fructose/glucose, at pH 7.1 or 2.8).
Five human Subjects are used for preliminary taste tests. […] Subjects refrain from eating or drinking (except water) for at least 1 hour prior to the test. Subjects eat a cracker and rinse with water four times to clean the mouth before taste tests.
The aqueous solutions are dispensed in 10 ml volumes into 1 oz. sample cups and served to the Subjects at room temperature. Samples of the experimental compound dissolved in an appropriate key tastant (e.g., 4% sucrose, 6% fructose, or 6% fructose/glucose, typically at pH 7.1) at various concentrations of the experimental compound may also be served to the Subjects. Subjects also receive a reference sample of the key tastant (e.g., sucrose, fructose, or fructose/glucose, typically at pH 7.1) at different concentrations for comparison.
Subjects taste the solutions, starting with the lowest concentration, and rate intensity of the following attributes on the Labeled Magnitude Scale (LMS) for sweetness, saltiness, sourness, bitterness, savory (umami), and other (off-taste). Subjects rinse three times with water between tastings. If a particular concentration elicits an undesirable characteristic or off-taste, subsequent tastings of higher concentrations are eliminated. After a break, Subjects taste a solution of the key tastant (e.g., 4% sucrose, 6% fructose, or 6% fructose/glucose, typically at pH 7.1) without the experimental compound. Then solutions of the key tastant plus experimental compound are tasted in increasing order of concentration. The key tastant solution can be retasted for comparison with key tastant+experimental compound solutions if necessary. Discussion among panelists is permitted.
Subjects rate the difference in intensity of the test sample compared to the reference sample for the key attribute on a scale of −5 (much less sweet than the reference) to +5 (much more sweet than the reference). A score of 0 indicates the test sample is equally as sweet as the reference. […]

## CCCC(CCC)NC(=O)c1ccc2c(c1)OCO2 [Example 1, N-(heptan-4-yl)benzo[d][1,3]dioxole-5-carboxamide]
[1]
  Taste Data: concentration of cpd with 12 mM MSG that is as strong as 12 mM MSG + 100 μM IMP: 12 mM MSG + 3 μM cpd as strong as
[2]; compound present at 0.03 μM
  EC50 ratio (enhanced the effectiveness of monosodium glutamate): 6.92

## COC(=O)[C@@H](CC(C)C)NC(=O)c1ccc2c(c1)OCO2 [Example 6, (R)-methyl 2-(benzo[d][1,3]dioxole-6-carboxamido)-4-methylpentanoate]
[1]
  Taste Data: concentration of cpd with 12 mM MSG that is as strong as 12 mM MSG + 100 μM IMP: 12 mM MSG + 10 μM cpd as strong as
[2]; compound present at 0.1 μM
  EC50 ratio (enhanced the effectiveness of monosodium glutamate): 4.9

## COC[C@@H](CC(C)C)NC(=O)c1ccc(C)c(C)c1 [Example 71, (R)—N-(1-methoxy-4-methylpentan-2-yl)-3,4-dimethylbenzamide]
[1]
  Taste Data: concentration of cpd with 12 mM MSG that is as strong as 12 mM MSG + 100 μM IMP: 12 mM MSG + 3 μM cpd as strong as

## COC(=O)[C@@H](CC(C)C)NC(=O)c1cc(C)c(C)o1 [Example 98, (R)-methyl-2-(2,3-dimethylfuran-5-carboxamido)-4-methylpentanoate]
[1]
  Taste Data: concentration of cpd with 12 mM MSG that is as strong as 12 mM MSG + 100 μM IMP: 12 mM MSG + 10 μM cpd as strong as

## COC[C@@H](CC(C)C)NC(=O)c1ccc(OC)c(C)c1 [Example 104, 4-Methoxy-N-(1-methoxymethyl-3-methyl-butyl)-3-methyl-benzamide]
[1]
  Taste Data: concentration of cpd with 12 mM MSG that is as strong as 12 mM MSG + 100 μM IMP: 12 mM MSG + 3 μM cpd as strong as

## COc1ccc(CNC(=O)C(=O)NCCc2ccccn2)c(OC)c1 [Example 123, N-(2,4-Dimethoxy-benzyl)-N′-(2-pyridin-2-yl-ethyl)-oxalamide]
[1]
  Taste Data: concentration of cpd with 12 mM MSG that is as strong as 12 mM MSG + 100 μM IMP: 12 mM MSG + 1 μM cpd as strong as
[2]; compound present at 0.3 μM
  EC50 ratio (enhanced the effectiveness of monosodium glutamate): 6.51

## Cc1c(F)c(F)c(C(=O)NC2CCCCC2C)c(F)c1F (stereo not drawn) [Example 162, 2,3,5,6-tetrafluoro-4-methyl-N-(2-methylcyclohexyl)benzamide]
[3]; 10 uM compound + 6% fructose/glucose, pH 7.1
  Perceived Equivalent Sweet Solution: ≥ 8% fructose/glucose
[3]; 10 uM compound + 7% fructose/glucose, pH 2.8
  Perceived Equivalent Sweet Solution: ≥ 9% fructose/glucose

## Cc1cccc(C)c1C(=O)NC1CCCCC1C (stereo not drawn) [Example 168, 2,6-dimethyl-N-(2-methylcyclohexyl)benzamide]
[3]; 30 uM compound + 6% fructose/glucose, pH 7.1
  Perceived Equivalent Sweet Solution: Equal to 8% fructose/ % fructose/glucose

## O=C(Nc1ccc2c(c1)OCO2)N1Cc2ccccc2C1 [Example 174, N-(3,4-methylenedioxyphenyl)isoindoline-2-carboxamide]
[3]; 50 uM compound + 4% sucrose, pH not measured or controlled
  Perceived Equivalent Sweet Solution: 6% sucrose

## CCOc1ccc(/C=C/C(=O)NC(C)CC)cc1 (stereo not drawn) [Example D13, (E)-N-sec-butyl-3-(4-ethoxyphenyl)acrylamide]
[2]; Table D, compound @ 0.3 uM
  Ec50 ratio (vs. MSG): 2.7

## CC1CCCCC1NC(=O)c1ccc(Cl)c(Cl)c1 (stereo not drawn) [Example E54, 3,4-dichloro-N-(2-methylcyclohexyl)benzamide]
[2]; Table E, compound concentration not given
  Umami EC50 ratio: 10.66
